Results on five compounds are retold here after patent publication US20070281040A1, “COMBINATION THERAPY OF HEDGEHOG INHIBITORS, RADIATION AND CHEMOTHERAPEUTIC AGENTS” (THE UNIVERSITY OF CHICAGO, priority 2004, published 2007).

Read-outs that look alike come from different tables or passages of the source.

The test system of one data set is Mia PaCa-2 cells. Put plainly: Colony formation assay. On the procedure: Mia PaCa-2 cells were grown in DMEM high glucose, and supplemented with L-glutamine, 10% fetal bovine serum (FBS), and penicillin/streptomycin 1%.
250 to 1000 cells were plated in 60 mm dishes. Cells were incubated overnight. At twenty four hours cells were irradiated (3.5 Gy). Cyclopamine 2-10 μMol (Toronto Research Chemicals, TRC, supplier, Canada) was added to culture media, or combination of both. For chemotherapeutic agents, the drug was added to culture media at appropriate concentrations 24 hours after plating. Cultures were incubated for 10-14 days. […] Plating efficiency was normalized compared to control.

The test system of a further data set is Mia PcCa-2 cells. Put plainly: Annexin V-PE apoptosis assay. Format: cell-based, human. The following applies: 24 hours. On the procedure: (§1) Cyclopamine 4 μmol was added to culture media of exponentially growing cells with or without chemotherapeutic agents and irradiated at 12 hours. Cells were trypsinized after 24, 48 or 72 hours. Annexin levels were measured (Annexin V: PE Apoptosis Detection Kit, BD Biosciences Pharningen™, San Jose, Calif.) for 0.5×10^6 freshly detached cells. The presence of membrane permeabilization was monitored by 7-AAD (7-Amino-actinomycinD) staining per manufacturer's protocol. Cells were subsequently analyzed by FACScan (BD FACSCanto™, BD Biosciences Immunocytometry Systems™, San Jose, Calif. with the use of CellQuest software (BD CellQuest™ Pro, BD Biosciences Immunocytometry Systems™, San Jose, Calif. The percentage of apoptotic cells was calculated by scoring for cells positive for either annexin alone (early apoptotic) or both annexin and 7-AAD (late apoptotic). All experiments were done in triplicate.

Data set [1] deals with hedgehog expressing tumor cells. In kind it is cell-based. On the procedure: as §1
Data set [2] concerns murine tumor allografts of medulloblastoma. Particulars: mouse, in vivo; cited from earlier work.
For data set [3], the system named is pancreatic cancer cell lines with over-activation of Hh pathway signaling. Particulars: cited from earlier work.
The next data set deals with HCT 116 cells. Briefly: Colony formation assay. Format: cell-based, human. On the procedure:
(§2) Cells were incubated overnight. […] Cultures were incubated for 10-14 days. […] Plating efficiency was normalized compared to control.

The next data set relates to BxPC-3 cells. Put plainly: Colony formation assay. Format: cell-based, human. On the procedure: as §2
In data set [4] the test system is prostate cancer xenografts. Particulars: high dose treatment; cited from earlier work.
Data set [5] concerns hedgehog expressing tumor cells. In kind it is cell-based. The source holds these as a separate data set.
Setting [6] is: cyclopamine 4 μM and irradiation 3.5 Gy.

In the case of `CC(=O)O[C@H]1C(=O)[C@@]2(C)[C@H]([C@H](OC(=O)c3ccccc3)[C@]3(O)C[C@H](OC(=O)[C@H](O)[C@@H](NC(=O)c4ccccc4)c4ccccc4)C(C)=C1C3(C)C)[C@]1(OC(C)=O)CO[C@@H]1C[C@@H]2O` [taxol, Paclitaxel], the “survival (colony formation)” value with Mia PaCa-2 cells (taxol 3.5 nM alone) worked out at 91%. Further, the “apoptosis (AnnexinV staining)” value in the data set with Mia PcCa-2 cells (taxol 1.7 nM) was determined as 64.9%.
Regarding `CC1=C2C[C@H]3[C@@H](CC=C4C[C@@H](O)CC[C@@]43C)[C@@H]2CC[C@]12O[C@@H]1C[C@H](C)CN[C@H]1[C@H]2C` [cyclopamine], the “apoptosis of combination with radiation vs radiation alone (in words)” value in data set [1] (cyclopamine 4 μMol and radiation 3.5 Gy) is recorded as “not significantly different from radiation alone”. Besides, the “apoptotic cells (Annexin assay)” value was 32.11% in [1] (cyclopamine 4 μMol and radiation 3.5 Gy, 24 hours); 28.5% in [1] (cyclopamine 4 μMol and radiation 3.5 Gy, 48 hours); 32.3% in data set [1] (cyclopamine 4 μMol and radiation 3.5 Gy, 72 hours); 18.15% in data set [1] (cyclopamine 4 μMol, 24 hours); 29.8% in data set [1] (cyclopamine 4 μMol, 48 hours); 32.9% in data set [1] (cyclopamine 4 μMol, 72 hours). Also, the “tumor response (in words)” value is listed as “anti-tumor effects” in [2] and “complete regression” in [4]. Besides, the “survival (colony formation)” value with Mia PaCa-2 cells (cyclopamine 4 μM alone) is given as 29%; in the data set with Mia PaCa-2 cells (setting [6]), 4%; in the data set on Mia PaCa-2 cells (cyclopamine 10 μM), 7%; in the data set on HCT 116 cells (setting [6]), 35%; in the data set with HCT 116 cells (cyclopamine 10 μM) it was 74%; in the data set with HCT 116 cells (cyclopamine 4 μMol alone), 92%. In addition, the “survival (colony formation)” value in the data set on BxPC-3 cells (setting [6]) is recorded as 7%; in the data set with BxPC-3 cells (cyclopamine 10 μM), 11%; with BxPC-3 cells (cyclopamine 4 μMol alone) it was 33%. In addition, in the data set with Mia PaCa-2 cells (hedgehog expressing tumor cells), the “cytotoxic effect when combined with irradiation (in words)” value is “additive cytotoxic effect”. Besides, the “apoptosis (AnnexinV staining)” value in the data set on Mia PcCa-2 cells (cyclopamine 4 μMol) is recorded as 18.2%. In addition, in [3], the “apoptosis (in words)” value is “induced apoptosis”. The “effect on survival following irradiation (in words)” value in the data set on HCT 116 cells (cells that do not express the hedgehog pathway) was “did not have a significant effect on survival”.
Take `Nc1ccn([C@@H]2O[C@H](CO)[C@@H](O)C2(F)F)c(=O)n1` [Gemcitabine]: the “survival (colony formation)” value in the data set with Mia PaCa-2 cells (gemcitabine 7.3 nM alone) worked out at 35%.
Take `CC1=C2C(=O)C3C(CC=C4CC(O)CCC43C)C2CCC12OC1CC(C)CNC1C2C` (centres unmarked) [jervine]: the “apoptosis of combination with radiation vs radiation alone (in words)” value in data set [5] (jervine 4 μMol and radiation 3.5 Gy) is “differ little from radiation alone”. The “apoptosis (Annexin V assay, in words)” value in data set [5] (jervine 4 μMol, 24, 48 or 72 hours) is “induces apoptosis in an increasing percentage of cells in a time-dependent manner”. Also, in data set [5] (jervine, hedgehog expressing tumor cells), the “cytotoxic effect when combined with irradiation (in words)” value is listed as “additive cytotoxic effect”.
Turning to `N.N.[Cl][Pt][Cl]` [Cisplatin], in the data set with Mia PaCa-2 cells (cisplatin 0.8 μM alone), the “survival (colony formation)” value was 35%.
